Ends that are not written are not given here.
Assays:
[1] = biological target: human sputum leucocyte elastase (neutrophil elastase, NE) (Homo sapiens, UniProt P08246); settings: 500 nM NE, 37 °C, 0-4 h, hourly samples; peptide 500 μg/mL or parental molar equivalent (160 or 120 μM); SDS-PAGE, Coomassie, visual
Description: The method for reaction termination was dependent on subsequent experiments/analysis. For samples intended for investigation of peptide activity using in vitro experiments the reaction was terminated via addition of 1 mM of the serine protease inhibitor pefabloc (Merck, Gillingham, UK), which was added to all groups including the NE alone groups. Samples intended for peptide degradation analysis via SDS-PAGE or mass spectrometry were boiled at 95 °C for ten minutes using a heat block to terminate the reaction.
Peptide samples were separated by sodium dodecyl sulphate-polyacrylamide gel electrophoresis (SDS-PAGE) under denaturing and reducing conditions using 4–12% Invitrogen NuPAGE Novex Bis-Tris precast gels (Thermo Fisher Scientific, Loughborough, UK) and the Invitrogen XCell SureLock Mini-Cell (Thermo Fisher Scientific, Loughborough, UK). An aliquot of 10 μL peptide samples was incubated with 4 μL NuPAGE lithium dodecyl sulphate (LDS) sample buffer (Thermo Fisher Scientific) and 2 μL of […] dithiothreitol (DTT) (Fluorochem, Hadfield, UK) for ten minutes at 95 °C and 15 μL of sample mixture loaded per lane and 5 μL of SeeBlue Plus2 pre-stained protein standard (Thermo Fisher Scientific, Loughborough, UK) loaded in at least one lane. The samples were run using 1X 2-morpholinoethanesulfonic acid (MES)-SDS running buffer (Thermo Fisher Scientific, Loughborough, UK). Electrophoresis was performed under a constant current of 125 mA for 40–60 min. The gel was stained using Biosafe Coomassie Brilliant Blue G-250 stain (Biorad, Watford, UK) for 60 min, washed and destained in water overnight and imaged using a Syngene G:box and GeneSnap software (Syngene, Cambridge, UK).

neutrophil elastase = neutrophil elastase (Homo sapiens, UniProt P08246); settings: 500 μg/mL peptide, 500 nM NE in 1X TBS, 4 h, 37 °C; MALDI-TOF-MS
Description: The method for reaction termination was dependent on subsequent experiments/analysis. […] Samples intended for peptide degradation analysis via SDS-PAGE or mass spectrometry were boiled at 95 °C for ten minutes using a heat block to terminate the reaction.
This service was provided by the University of Dundee (Dundee, UK).

[2] = SDS-PAGE; for Effect of pefabloc (serine protease inhibitor) on degradation in CF sputum, 4 h / Effect of pefabloc (serine protease inhibitor) on degradation in CF sputum, 24 h: 1 mM pefabloc pre-incubated 30 min with sputum (100-fold in TBS)
Description: Sputum from Pseudomonas-infected CF patients was obtained anonymously from the adult CF Centre at Belfast City Hospital. Sputum samples were in excess to requirements for diagnostic purposes. Permission to use sputum samples, which would have been disposed of, for validation purposes was given by the Director of R&D, Belfast Health and Social Care Trust. Sputum was frozen immediately at −80 °C and used the next day after thawing at room temperature.
Samples were transferred to a fresh Eppendorf at regular time-points (0, 1, 2, 3, 4, 18 and 24, as appropriate) and boiled on a heat block at 95 °C for ten minutes to terminate the reaction. […] CF sputum (diluted 100-fold in 1X TBS) was incubated with 0.1 mM E64, 5 mM EDTA or 1 mM pefabloc for 30 min prior to addition of peptides. Following the addition of peptide, the samples were incubated for four or 24 h at 37 °C. An aliquot was taken at 0, 4 or 24 h and boiled for ten minutes at 95 °C to terminate the reaction. Samples were stored at 4 °C until analysed by SDS-PAGE.
Peptide samples were separated by sodium dodecyl sulphate-polyacrylamide gel electrophoresis (SDS-PAGE) under denaturing and reducing conditions using 4–12% Invitrogen NuPAGE Novex Bis-Tris precast gels (Thermo Fisher Scientific, Loughborough, UK) and the Invitrogen XCell SureLock Mini-Cell (Thermo Fisher Scientific, Loughborough, UK). An aliquot of 10 μL peptide samples was incubated with 4 μL NuPAGE lithium dodecyl sulphate (LDS) sample buffer (Thermo Fisher Scientific) and 2 μL of 500 nM dithiothreitol (DTT) (Fluorochem, Hadfield, UK) for ten minutes at 95 °C and 15 μL of sample mixture loaded per lane and 5 μL of SeeBlue Plus2 pre-stained protein standard (Thermo Fisher Scientific, Loughborough, UK) loaded in at least one lane. The samples were run using 1X 2-morpholinoethanesulfonic acid (MES)-SDS running buffer (Thermo Fisher Scientific, Loughborough, UK). Electrophoresis was performed under a constant current of 125 mA for 40–60 min. The gel was stained using Biosafe Coomassie Brilliant Blue G-250 stain (Biorad, Watford, UK) for 60 min, washed and destained in water overnight and imaged using a Syngene G:box and GeneSnap software (Syngene, Cambridge, UK).

[3] = CF sputum (diluted 100-fold in 1X tris-buffered saline (TBS)); settings: CF patients, 37 °C, up to four hours
[4] = test system: human sputum leucocyte elastase (neutrophil elastase, NE); experiment: 500 nM of NE in 1 X TBS; settings: 37 °C, up to four hours
[5] = 5 mM EDTA pre-incubated 30 min with sputum (100-fold in TBS), then peptide 24 h at 37 °C

Sequence of human sputum leucocyte elastase (neutrophil elastase, NE) (Homo sapiens, UniProt P08246) (P08246 30-247 limits assumed): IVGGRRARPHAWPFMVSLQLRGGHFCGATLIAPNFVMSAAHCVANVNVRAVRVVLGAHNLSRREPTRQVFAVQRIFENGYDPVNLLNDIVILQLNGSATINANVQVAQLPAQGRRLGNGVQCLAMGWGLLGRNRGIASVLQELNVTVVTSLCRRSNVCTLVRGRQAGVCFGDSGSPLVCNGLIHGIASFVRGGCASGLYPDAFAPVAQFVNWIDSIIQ
Sequence of neutrophil elastase (P08246 30-247 limits assumed): as above

For “KRFKKFFKKLKNSVKKRAKKFFKKPRVIGVSIPF [SnE1]”, the “Cleavage by neutrophil elastase” value [1] was “gradual transition from one band of larger molecular weight to one or more bands of smaller molecular weight” and the “Neutrophil elastase cleavage sites (peptide cleaved after each site marked)” value (neutrophil elastase) was “KRFKKFFKKLKNSV│[…]│GVSIPF”.

For “KRFKKFFKKVKKSVKKRLKKIFKKPMVIGVTIPF [SnV1]”, the “Effect of pefabloc (serine protease inhibitor) on degradation in CF sputum, 4 h” value ([2]; then peptide 4 h at 37 °C) was “prevented only by the inhibitor pefabloc”.

With KRFKKFFKRLLKSVRRAVKKFRKK [Sn1b] the “Cleavage by neutrophil elastase” value [1] was “rapidly cleaved” and the “Effect of EDTA (MMP inhibitor) on degradation in CF sputum, 4 h” value ([2]; 5 mM EDTA pre-incubated 30 min with sputum (100-fold in TBS), then peptide 4 h at 37 °C) was “inhibited”.

For KFFKRLLKSVRRAVKKFRKKPRLIGLSTLL [Sn1], the “Effect of pefabloc (serine protease inhibitor) on degradation in CF sputum, 4 h” value ([2]; then peptide 4 h at 37 °C) was “prevented only by the inhibitor pefabloc”.

For KRFKKFFKKLKNSV [SnE1N], the “Cleavage by neutrophil elastase” value [1] was “appeared to remain intact”, the “Effect of pefabloc (serine protease inhibitor) on degradation in CF sputum, 24 h” value ([2]; then peptide 24 h at 37 °C) was “prevented degradation” and the “Effect of EDTA (MMP inhibitor) on degradation in CF sputum, 24 h” value [2, 5] was “prevented degradation”.

For KFFKRLLKSVRRAVKKFRKK [Sn1a], the “Effect of pefabloc (serine protease inhibitor) on degradation in CF sputum, 4 h” value ([2]; then peptide 4 h at 37 °C) was “prevented only by the inhibitor pefabloc”.

In the case of KRFKKFFKRLLKSV, the not cleaved [3] is reported as “did not exhibit obvious degradation when incubated with CF sputum after 4 h”.

For KRFKKFFKKLKNSVKKRAKKFFKKPRVI [SnE1-F], the “Cleavage by neutrophil elastase” value [1] was “gradual transition from one band of larger molecular weight to one or more bands of smaller molecular weight”, the “Effect of E64 (cysteine protease inhibitor) on degradation in CF sputum, 24 h” value ([2]; 0.1 mM E64 pre-incubated 30 min with sputum (100-fold in TBS), then peptide 24 h at 37 °C) was “did not prevent” and the “Effect of pefabloc (serine protease inhibitor) on degradation in CF sputum, 4 h” value ([2]; then peptide 4 h at 37 °C) was “prevented in the presence of pefabloc”. For the same sequence, the “Effect of pefabloc (serine protease inhibitor) on degradation in CF sputum, 24 h” value ([2]; then peptide 24 h at 37 °C) was “prevented the degradation”, the “Effect of EDTA (MMP inhibitor) on degradation in CF sputum, 24 h” value [2, 5] was “did not prevent” and the “Degradation in CF sputum within 4 h” value ([2]; CF sputum diluted 100-fold in 1X TBS, 37 °C, 0-4 h, peptide 500 μg/mL or parental molar equivalent (160 or 120 μM), Coomassie, visual) was “some degradation”.

For KRFKKFFKRLLKSVRRAVKKFRKK, the cleaved bond [4] was “V-R”.

In the case of KRFKKFFKKVKKSVKKRLKKIFKKPMVIGVTIPF, the cleaved bond [4] is reported as “V-K and I-F”.

With KRFKKFFKRLLKSV [Sn1bN] the “Cleavage by neutrophil elastase” value [1] was “did not result in obvious cleavage”.

For KRFKKFFKKLKNSVKKRAKKFFKKPRVIGVSIPF, the cleaved bond [4] was “V-K and I-G”.

— paper PMC8394243 (Biomolecules, 2021)
